Values joined by “and” are separate entries in the source; they are usually repeats but may differ in a detail not shown here. Equal values may be shown once.
Assay: Normal organ dosimetry Cycle 1: SPECT/CT, TIACs, OLINDA 2.2.3 absorbed radiation dose
Format: in vivo, human
Settings: individual patients/doses
Procedure: This Example presents the biodistribution, dosimetry, and pharmacokinetics (PK) results of a PK/Dosimetry sub-study performed as part of a Phase III trial. Twenty-seven (27) patients were administered a target activity of 7.4±10% GBq of ^177Lu-PSMA-I&T and underwent single photon emission computed tomography (SPECT)/computed tomography (CT) imaging at four timepoints (4 h, 24 h, 48 h, and 168 h). Image data was analysed to compute time-activity curves (TACs) and subsequently time-integrated activity coefficients (TIACs) in each organ of interest and in organs showing appreciable and meaningful ^177Lu-PSMA-I&T activity. Organ Level Internal Dose Assessment (OLINDA 2.2.3) was used to compute organ and whole body absorbed radiation doses for each patient.
All participating sites underwent a rigorous site setup process during which all dose calibrators, scanners, and gamma counters used in the sub-study were calibrated. Sites were allowed to enroll patients in the sub-study only after the completion and approval of all site setup processes by Invicro. Patients underwent SPECT/CT imaging, with anatomical coverage typically extending from the salivary glands to the pelvis, following the administration of a targeted 7.4±10% GBq of ^177Lu-PSMA-I&T at cycle 1. SPECT/CT imaging was performed at four timepoints: 4 h, 24 h, 48 h, and 168 h post-injection. Additionally, a subset of patients imaged at Cycle 1 (16 out of 27), were also imaged at Cycle 3 (Table 2).
The imaging data was analyzed using Invicro's VivoQuant software, a validated software used in a 21 CFR § 11-compliant workflow. The general quantification approach was based on the principles detailed in the Medical Internal Radiation Dose (MIRD) Pamphlet No. 16, No 23, and No 26 as appropriate.
Volume of interest (VOI) (kidneys, bladder, liver, lumbar vertebrae L2-L4, lacrimal glands, salivary glands [parotid and submandibular glands], and whole body) were delineated on each dataset by a trained image analyst. […] Organs were segmented either by drawing the entire contour of the organ, or by placing a sphere in a representative region of the organ and then multiplying by the organ's effective mass (based on patient's height and weight). Segmentation methods for each organ are specified in Table 3 and were consistently applied to each patient.
Clearance of the radiopharmaceutical was derived from a data-appropriate fit of each organ's TAC. Depending on the TAC's shape, the data was fitted with the sum of one, two, or three exponentials, or using a rise and fall model. Fitting was performed with in-house Python software. TIACs were calculated through analytical integration of the curve fit extrapolated to infinity. […] A whole-body TAC was derived from delineating the imaged body. The remainder activity was determined by subtracting the cumulative organ TIACs from the whole body TIAC.
Organ TIACs were input into OLINDA 2.2.3 for the computation of organ and whole-body absorbed doses, using International Commission on Radiological Protection (ICRP)-103 weighing factors. The ICRP-89 derived male phantom was used for dose estimation. Organs and body mass as defined by ICRP-89 were scaled based on height and mass using patient effective mass.^4 The voiding bladder model as implemented in OLINDA was used to determine bladder TIAC, assuming a voiding interval of 4 hours. The human alimentary tract model (HAT model) described in ICRP 100 and implemented in OLINDA was used to compute doses to the small intestine, right colon, left colon and rectum for patients showing clearance through the GI tract. The fraction of injected activity (fIA) cleared via the GI tract was determined by taking the peak fIA in the GI tract over all the imaging timepoints. […] The Red Marrow mass in L2-L4 was assumed to be 6.7% of the total red marrow mass.

SMILES: O=C([O-])CC[C@H](NC(=O)N[C@@H](CCCCNC(=O)CCCCCCC(=O)NCCCC[C@@H](NC(=O)[C@@H](Cc1ccccc1)NC(=O)[C@@H](Cc1ccc(O)c(I)c1)NC(=O)CC[C@H](C(=O)[O-])N1CCN(CC(=O)[O-])CCN(CC(=O)[O-])CCN(CC(=O)[O-])CC1)C(=O)[O-])C(=O)[O-])C(=O)[O-].[177Lu+3].[H+].[H+].[H+].[H+].[H+] [Lu-177 PSMA I&T]
- Kidneys absorbed dose (68.9 µg PSMA I&T content): 0.31 Gy/GBq
- Kidneys absorbed dose (71.6 µg PSMA I&T content): 0.36 Gy/GBq
- Kidneys absorbed dose (72.1 µg PSMA I&T content): 0.32 Gy/GBq and 0.54 Gy/GBq
- Kidneys absorbed dose (76.8 µg PSMA I&T content): 0.23 Gy/GBq
- Kidneys absorbed dose (77.0 µg PSMA I&T content): 0.28 Gy/GBq and 0.56 Gy/GBq
- Kidneys absorbed dose (77.7 µg PSMA I&T content): 0.41 Gy/GBq
- Kidneys absorbed dose (79.0 µg PSMA I&T content): 0.53 Gy/GBq
- Kidneys absorbed dose (79.4 µg PSMA I&T content): 0.81 Gy/GBq
- Kidneys absorbed dose (79.5 µg PSMA I&T content): 0.30 Gy/GBq and 0.38 Gy/GBq
- Kidneys absorbed dose (80.4 µg PSMA I&T content): 0.24 Gy/GBq
- Kidneys absorbed dose (82.0 µg PSMA I&T content): 0.17 Gy/GBq
- Kidneys absorbed dose (82.2 µg PSMA I&T content): 0.34 Gy/GBq
- Kidneys absorbed dose (82.6 µg PSMA I&T content): 0.29 Gy/GBq
- Kidneys absorbed dose (85.3 µg PSMA I&T content): 0.55 Gy/GBq
- Kidneys absorbed dose (89.2 µg PSMA I&T content): 0.43 Gy/GBq
- Kidneys absorbed dose (90.0 µg PSMA I&T content): 0.35 Gy/GBq
- Kidneys absorbed dose (92.6 µg PSMA I&T content): 0.05 Gy/GBq and 0.45 Gy/GBq
- Kidneys absorbed dose (99.2 µg PSMA I&T content): 0.57 Gy/GBq
- Kidneys absorbed dose (105.1 µg PSMA I&T content): 0.48 Gy/GBq
- Kidneys absorbed dose (108.5 µg PSMA I&T content): 0.27 Gy/GBq
- Kidneys absorbed dose (110.6 µg PSMA I&T content): 0.64 Gy/GBq
- Kidneys absorbed dose (119.1 µg PSMA I&T content): 0.28 Gy/GBq
- Lacrimal Glands absorbed dose (72.1 µg PSMA I&T content): 0.19 Gy/GBq and 0.20 Gy/GBq
- Lacrimal Glands absorbed dose (76.8 µg PSMA I&T content): 0.08 Gy/GBq
- Lacrimal Glands absorbed dose (77.0 µg PSMA I&T content): 0.07 Gy/GBq and 0.06 Gy/GBq
- Lacrimal Glands absorbed dose (77.7 µg PSMA I&T content): 0.66 Gy/GBq
- Lacrimal Glands absorbed dose (79.0 µg PSMA I&T content): 0.16 Gy/GBq
- Lacrimal Glands absorbed dose (79.4 µg PSMA I&T content): 0.63 Gy/GBq
- Lacrimal Glands absorbed dose (79.5 µg PSMA I&T content): 0.26 Gy/GBq and 0.47 Gy/GBq
- Lacrimal Glands absorbed dose (80.4 µg PSMA I&T content): 0.08 Gy/GBq
- Lacrimal Glands absorbed dose (82.0 µg PSMA I&T content): 0.07 Gy/GBq
- Lacrimal Glands absorbed dose (82.2 µg PSMA I&T content): 0.54 Gy/GBq
- Lacrimal Glands absorbed dose (89.2 µg PSMA I&T content): 0.38 Gy/GBq
- Lacrimal Glands absorbed dose (90.0 µg PSMA I&T content): 0.09 Gy/GBq
- Lacrimal Glands absorbed dose (92.6 µg PSMA I&T content): 0.05 Gy/GBq and 0.04 Gy/GBq
- Lacrimal Glands absorbed dose (105.1 µg PSMA I&T content): 1.19 Gy/GBq
- Lacrimal Glands absorbed dose (108.5 µg PSMA I&T content): 0.94 Gy/GBq and 1.09 Gy/GBq
- Lacrimal Glands absorbed dose (110.6 µg PSMA I&T content): 0.68 Gy/GBq
- Lacrimal Glands absorbed dose (119.1 µg PSMA I&T content): 0.62 Gy/GBq
- Liver absorbed dose (68.9 µg PSMA I&T content): 0.04 Gy/GBq
- Liver absorbed dose (71.6 µg PSMA I&T content): 0.02 Gy/GBq
- Liver absorbed dose (72.1 µg PSMA I&T content): 0.02 Gy/GBq
- Liver absorbed dose (76.8 µg PSMA I&T content): 0.03 Gy/GBq
- Liver absorbed dose (77.0 µg PSMA I&T content): 0.06 Gy/GBq and 0.02 Gy/GBq
- Liver absorbed dose (77.7 µg PSMA I&T content): 0.04 Gy/GBq
- Liver absorbed dose (79.0 µg PSMA I&T content): 0.03 Gy/GBq
- Liver absorbed dose (79.4 µg PSMA I&T content): 0.03 Gy/GBq
- Liver absorbed dose (79.5 µg PSMA I&T content): 0.03 Gy/GBq and 0.07 Gy/GBq
- Liver absorbed dose (80.4 µg PSMA I&T content): 0.10 Gy/GBq
- Liver absorbed dose (82.0 µg PSMA I&T content): 0.05 Gy/GBq
- Liver absorbed dose (82.2 µg PSMA I&T content): 0.02 Gy/GBq
- Liver absorbed dose (82.6 µg PSMA I&T content): 0.02 Gy/GBq
- Liver absorbed dose (85.3 µg PSMA I&T content): 0.02 Gy/GBq
- Liver absorbed dose (89.2 µg PSMA I&T content): 0.08 Gy/GBq
- Liver absorbed dose (90.0 µg PSMA I&T content): 0.04 Gy/GBq
- Liver absorbed dose (92.6 µg PSMA I&T content): 0.09 Gy/GBq and 0.01 Gy/GBq
- Liver absorbed dose (99.2 µg PSMA I&T content): 0.04 Gy/GBq
- Liver absorbed dose (105.1 µg PSMA I&T content): 0.06 Gy/GBq
- Liver absorbed dose (108.5 µg PSMA I&T content): 0.07 Gy/GBq and 0.05 Gy/GBq
- Liver absorbed dose (110.6 µg PSMA I&T content): 0.03 Gy/GBq
- Liver absorbed dose (119.1 µg PSMA I&T content): 0.02 Gy/GBq
- Salivary Glands absorbed dose (68.9 µg PSMA I&T content): 0.11 Gy/GBq
- Salivary Glands absorbed dose (71.6 µg PSMA I&T content): 0.16 Gy/GBq
- Salivary Glands absorbed dose (72.1 µg PSMA I&T content): 0.06 Gy/GBq and 0.00 Gy/GBq
- Salivary Glands absorbed dose (76.8 µg PSMA I&T content): 0.11 Gy/GBq
- Salivary Glands absorbed dose (77.0 µg PSMA I&T content): 0.19 Gy/GBq and 0.10 Gy/GBq
- Salivary Glands absorbed dose (77.7 µg PSMA I&T content): 0.04 Gy/GBq
- Salivary Glands absorbed dose (79.0 µg PSMA I&T content): 0.15 Gy/GBq
- Salivary Glands absorbed dose (79.4 µg PSMA I&T content): 0.12 Gy/GBq
- Salivary Glands absorbed dose (79.5 µg PSMA I&T content): 0.26 Gy/GBq and 0.19 Gy/GBq
- Salivary Glands absorbed dose (80.4 µg PSMA I&T content): 0.20 Gy/GBq
- Salivary Glands absorbed dose (82.0 µg PSMA I&T content): 0.32 Gy/GBq
- Salivary Glands absorbed dose (82.2 µg PSMA I&T content): 0.03 Gy/GBq
- Salivary Glands absorbed dose (82.6 µg PSMA I&T content): 0.16 Gy/GBq
- Salivary Glands absorbed dose (85.3 µg PSMA I&T content): 0.09 Gy/GBq
- Salivary Glands absorbed dose (89.2 µg PSMA I&T content): 0.39 Gy/GBq
- Salivary Glands absorbed dose (90.0 µg PSMA I&T content): 0.80 Gy/GBq
- Salivary Glands absorbed dose (92.6 µg PSMA I&T content): 0.13 Gy/GBq and 0.14 Gy/GBq
- Salivary Glands absorbed dose (99.2 µg PSMA I&T content): 0.27 Gy/GBq
- Salivary Glands absorbed dose (105.1 µg PSMA I&T content): 0.18 Gy/GBq
- Salivary Glands absorbed dose (108.5 µg PSMA I&T content): 0.29 Gy/GBq and 0.10 Gy/GBq
- Salivary Glands absorbed dose (110.6 µg PSMA I&T content): 0.03 Gy/GBq
- Salivary Glands absorbed dose (119.1 µg PSMA I&T content): 0.28 Gy/GBq
